Reference: ChEMBL document CHEMBL3045107, “A facile green synthesis and in vitro antimicrobial activity 4H-pyrimido[2,1-b][1,3]benzothiazole derivatives using aluminum trichloride under solvent free conditions” (Med Chem Res, 2012)
≈ marks a conversion by molar mass, not a printed value. Calls of active or inactive are those of the source. No cut-off for these calls is given here.

Columns and labels:
Aspergillus fumigatus [1] = test: Antifungal activity against Aspergillus fumigatus at 0.78 to 50 ug/ml after 72 hr by broth microdilution method; format: functional
Aspergillus flavus [2] = test: Antifungal activity against Aspergillus flavus at 0.78 to 50 ug/ml after 72 hr by broth microdilution method; format: functional
Salmonella typhi [3] = test: Antibacterial activity against Salmonella enterica subsp. enterica serovar Typhi ATCC 23564 at 0.78 to 50 ug/ml after 24 hr by broth microdilution method; format: functional, organism-based
Bacillus cereus = test: Antibacterial activity against Bacillus cereus MTCC 7350 after 24 hr by broth microdilution method; format: functional; conditions: MTCC 7350, 24 h
Providencia rettgeri [4] = test: Antibacterial activity against Providencia rettgeri isolated from infected fish after 24 hr by broth microdilution method; format: functional
Escherichia coli [5] = test: Antibacterial activity against Escherichia coli ATCC 35218 after 24 hr by broth microdilution method; format: functional; conditions: ATCC 35218, 24 h
Staphylococcus aureus [6] = test: Antibacterial activity against Staphylococcus aureus ATCC 11632 at 0.78 to 50 ug/ml after 24 hr by broth microdilution method; format: functional, organism-based
Pseudomonas aeruginosa [7] = test: Antibacterial activity against Pseudomonas aeruginosa ATCC 15499 after 24 hr by broth microdilution method; format: functional; conditions: ATCC 15499, 24 h
Aspergillus flavus [8] = test: Antifungal activity against Aspergillus flavus after 72 hr by broth microdilution method; format: functional
Aspergillus niger [9] = test: Antifungal activity against Aspergillus niger at 0.78 to 50 ug/ml after 72 hr by broth microdilution method; format: functional
[10] = Cytotoxicity against Homo sapiens (human) L123 cells after 48 hr by MTT assay; format: cell-based; set-up: unit not given here
Salmonella typhi [11] = test: Antibacterial activity against Salmonella enterica subsp. enterica serovar Typhi ATCC 23564 after 24 hr by broth microdilution method; format: functional; conditions: ATCC 23564, 24 h
Staphylococcus aureus [12] = test: Antibacterial activity against Staphylococcus aureus ATCC 11632 after 24 hr by broth microdilution method; format: functional; conditions: ATCC 11632, 24 h
Aspergillus niger [13] = test: Antifungal activity against Aspergillus niger after 72 hr by broth microdilution method; format: functional
Aspergillus fumigatus [14] = test: Antifungal activity against Aspergillus fumigatus after 72 hr by broth microdilution method; format: functional
Escherichia coli [15] = test: Antibacterial activity against Escherichia coli ATCC 35218 at 0.78 to 50 ug/ml after 24 hr by broth microdilution method; format: functional, organism-based
Providencia rettgeri [16] = test: Antibacterial activity against Providencia rettgeri isolated from infected fish at 0.78 to 50 ug/ml after 24 hr by broth microdilution method; format: functional, organism-based
Pseudomonas aeruginosa [17] = test: Antibacterial activity against Pseudomonas aeruginosa ATCC 15499 at 0.78 to 50 ug/ml after 24 hr by broth microdilution method; format: functional, organism-based

SMILES | Activity (Aspergillus fumigatus [1]) | inhibition zone (IZ) (Aspergillus flavus [2]) [mm] | MIC (Bacillus cereus) [µg/mL] | MIC (Providencia rettgeri [4]) [µg/mL] | MIC (Escherichia coli [5]) [µg/mL] | Activity (Staphylococcus aureus [6]) | MIC (Pseudomonas aeruginosa [7]) [µg/mL] | MIC (Aspergillus flavus [8]) [µg/mL] | Activity (Aspergillus niger [9]) | IC50 [10] | MIC (Salmonella typhi [11]) [µg/mL] | MIC (Staphylococcus aureus [12]) [µg/mL] | inhibition zone (IZ) (Aspergillus fumigatus [1]) [mm] | MIC (Aspergillus niger [13]) [µg/mL] | inhibition zone (IZ) (Aspergillus niger [9]) [mm] | MIC (Aspergillus fumigatus [14]) [µg/mL] | Activity (Aspergillus flavus [2]) | also measured
CCOC(=O)C1=C(C)N=C2Sc3ccccc3N2C1c1ccccc1O (configuration not stated) | inactive | 11 | 6.25 (≈ 17.1 µM) | 12.5 (≈ 34.1 µM) | 12.5 (≈ 34.1 µM) | inactive | 25 (≈ 68.2 µM) | 12.5 (≈ 34.1 µM) | inactive | > 100 | – | – | – | – | – | – | – | Activity (Salmonella typhi [3]): inactive
O=C(O)c1cn(C2CC2)c2cc(N3CCNCC3)c(F)cc2c1=O [CIPROFLOXACIN] | – | – | 1.62 (≈ 4.89 µM) | 1.62 (≈ 4.89 µM) | 1.62 (≈ 4.89 µM) | – | 1.62 (≈ 4.89 µM) | – | – | – | 3.25 (≈ 9.81 µM) | 3.25 (≈ 9.81 µM) | – | – | – | – | – | –
CCOC(=O)C1=C(C)N=C2Sc3ccccc3N2C1c1ccc(OC)cc1 (configuration not stated) | – | 18 | 6.25 (≈ 16.4 µM) | 6.25 (≈ 16.4 µM) | 6.25 (≈ 16.4 µM) | – | 6.25 (≈ 16.4 µM) | – | – | > 100 | 12.5 (≈ 32.9 µM) | 6.25 (≈ 16.4 µM) | 20 | 6.25 (≈ 16.4 µM) | 16 | 6.25 (≈ 16.4 µM) | – | –
CCOC(=O)C1=C(C)N=C2Sc3ccccc3N2C1c1ccccc1 (configuration not stated) | – | – | 12.5 (≈ 35.7 µM) | – | – | inactive | 25 (≈ 71.3 µM) | – | inactive | > 100 | 25 (≈ 71.3 µM) | – | 10 | – | – | 6.25 (≈ 17.8 µM) | inactive | Activity (Escherichia coli [15]): inactive; Activity (Providencia rettgeri [16]): inactive
CCOC(=O)C1=C(C)N=C2Sc3ccccc3N2C1c1ccc(O)c(OC)c1 (configuration not stated) | inactive | – | 12.5 (≈ 31.5 µM) | 25 (≈ 63.1 µM) | 25 (≈ 63.1 µM) | – | – | – | – | 50 | – | 25 (≈ 63.1 µM) | – | 6.25 (≈ 15.8 µM) | 10 | – | inactive | Activity (Salmonella typhi [3]): inactive; Activity (Pseudomonas aeruginosa [17]): inactive
OC(Cn1cncn1)(Cn1cncn1)c1ccc(F)cc1F [FLUCONAZOLE] | – | 25 | – | – | – | – | – | 1.62 (≈ 5.29 µM) | – | – | – | – | 22 | 1.62 (≈ 5.29 µM) | 18 | 1.62 (≈ 5.29 µM) | – | –
CCOC(=O)C1=C(C)N=C2Sc3ccccc3N2C1c1ccc(N(C)C)cc1 (configuration not stated) | inactive | – | 6.25 (≈ 15.9 µM) | 12.5 (≈ 31.8 µM) | 12.5 (≈ 31.8 µM) | inactive | 12.5 (≈ 31.8 µM) | – | inactive | > 100 | 12.5 (≈ 31.8 µM) | – | – | – | – | – | inactive | –
CCOC(=O)C1=C(C)N=C2Sc3ccccc3N2C1c1ccc(O)cc1 (configuration not stated) | – | – | 6.25 (≈ 17.1 µM) | 12.5 (≈ 34.1 µM) | 6.25 (≈ 17.1 µM) | – | 12.5 (≈ 34.1 µM) | – | – | 50 | 25 (≈ 68.2 µM) | 12.5 (≈ 34.1 µM) | 12 | 6.25 (≈ 17.1 µM) | 15 | – | inactive | –
CCOC(=O)C1=C(C)N=C2Sc3ccccc3N2C1c1ccc([N+](=O)[O-])cc1 (configuration not stated) | – | – | 6.25 (≈ 15.8 µM) | 25 (≈ 63.2 µM) | 12.5 (≈ 31.6 µM) | – | 12.5 (≈ 31.6 µM) | – | – | > 100 | 6.25 (≈ 15.8 µM) | 25 (≈ 63.2 µM) | 15 | 12.5 (≈ 31.6 µM) | 17 | 6.25 (≈ 15.8 µM) | inactive | –
CCOC(=O)C1=C(C)N=C2Sc3ccccc3N2C1c1c(Cl)cccc1Cl (configuration not stated) | inactive | – | 6.25 (≈ 14.9 µM) | 12.5 (≈ 29.8 µM) | 6.25 (≈ 14.9 µM) | – | 12.5 (≈ 29.8 µM) | 12.5 (≈ 29.8 µM) | inactive | > 100 | 25 (≈ 59.6 µM) | 12.5 (≈ 29.8 µM) | – | – | – | 6.25 (≈ 14.9 µM) | inactive | –
